Data: patent US10392630B2, “Plants having increased tolerance to herbicides” (BASF AGRO B.V., priority 2013, dated 2019)
Where “and” joins values, the source holds several entries; their conditions need not be identical. Equal entries are not always repeated.

Tests used:
[1] = system: transgenic soybean cv Jake cuttings; assay: Herbicide injury of transgenic soybean cuttings from T0 plants (Table 7, FIG. 4); type: in vivo, Glyceine max; conditions: V2 spray, 1 week after treatment
[2] = target: Alopecurus mutant PPO (ALOMY), SEQ ID NO 2 with amino acid substitution; assay: PPO enzyme assay, dose-response (fluorescence), mutated Alopecurus PPO2; type: biochemical, Alopecurus myosuroides
[3] = system: transgenic Arabidopsis thaliana plants; assay: Growth inhibition of transgenic Arabidopsis in 48-well plates, tolerance factor (Table 5, FIG. 2); type: in vivo; conditions: growth inhibition seven to ten days after seeding
[4] = system: Alopecurus wildtype PPO (ALOMY), PPO herbicide sensitive PPO2, SEQ ID NO 2; assay: PPO enzyme assay, dose-response (fluorescence), wildtype Alopecurus PPO2; type: biochemical, Alopecurus myosuroides; conditions: Table 3a; PPO herbicide sensitive PPO2, SEQ ID NO 2, ALOMY
[5] = system: transgenic T0 corn events; assay: Herbicide injury of transgenic T0 corn events, greenhouse spray (Table 6a); type: in vivo, Zea mays; design: key: 0 is no injury relative to an unsprayed wild type check; 9 is completely dead; conditions: 7 days after treatment

SMILES: CC(C)N(C)S(=O)(=O)NC(=O)c1cc(-n2c(=O)cc(C(F)(F)F)n(C)c2=O)c(F)cc1Cl [saflufenacil]
- Herbicide injury ([1]; AlomyPPO1_R138A T0 cuttings, BAS 800H 25 g ai/ha): 6 and 9
- Herbicide injury ([1]; AlomyPPO1_R138A_Y420M T0 cuttings, BAS 800H 25 g ai/ha): 0
- Herbicide injury ([1]; AlomyPPO1_R138A_Y420M T0 cuttings, BAS 800H 50 g ai/ha): 3
- Herbicide injury ([1]; AlomyPPO1_R138A_Y420M T0 cuttings, BAS 800H 100 g ai/ha): 3
- Herbicide injury ([1]; AlomyPPO1_R138L T0 cuttings, BAS 800H 25 g ai/ha): 8 and 7 and 6
- Herbicide injury ([1]; AlomyPPO1_R138L T0 cuttings, BAS 800H 50 g ai/ha): 8 and 9 and 6 and 7
- Herbicide injury ([1]; AlomyPPO1_R138L T0 cuttings, BAS 800H 100 g ai/ha): 8 and 9
- Herbicide injury ([1]; AlomyPPO1_Y420M T0 cuttings, BAS 800H 50 g ai/ha): 5 and 4 and 8
- Herbicide injury ([1]; AlomyPPO1_Y420M T0 cuttings, BAS 800H 100 g ai/ha): 5 and 4 and 8
- Herbicide injury ([1]; AlomyPPO2_R137A T0 cuttings, BAS 800H 25 g ai/ha): 3
- Herbicide injury ([1]; AlomyPPO2_R137A T0 cuttings, BAS 800H 50 g ai/ha): 0
- Herbicide injury ([1]; AlomyPPO2_R137A T0 cuttings, BAS 800H 100 g ai/ha): 2
- Herbicide injury ([1]; AlomyPPO2_R137A_F438L T0 cuttings, BAS 800H 200 g ai/ha): 6 and 9
- Herbicide injury ([1]; AlomyPPO2_R137A_F438V T0 cuttings, BAS 800H 200 g ai/ha): 4 and 3 and 6
- Herbicide injury ([1]; AlomyPPO2_R137L_F438I T0 cuttings, BAS 800H 100 g ai/ha): 9
- Herbicide injury ([1]; AlomyPPO2_R137L_F438I T0 cuttings, BAS 800H 200 g ai/ha): 9
- Herbicide injury ([1]; AlomyPPO2_R137M_F438L T0 cuttings, BAS 800H 50 g ai/ha): 4
- Herbicide injury ([1]; AlomyPPO2_R137M_F438L T0 cuttings, BAS 800H 100 g ai/ha): 6 and 3
- Herbicide injury ([1]; AlomyPPO2_R137M_F438M T0 cuttings, BAS 800H 50 g ai/ha): 9
- Herbicide injury ([1]; Wild type cuttings, BAS 800H 25 g ai/ha): 9
- Herbicide injury ([1]; Wild type cuttings, BAS 800H 50 g ai/ha): 9
- Herbicide injury ([1]; Wild type cuttings, BAS 800H 100 g ai/ha): 9
- Herbicide injury ([1]; Wild type cuttings, BAS 800H 200 g ai/ha): 9
- IC50 [2]: > 10000 nM
- TF (Tolerance Factor), relative tolerance rate (non-transgenic = 1.0) ([3]; transgenic Arabidopsis Am_PPO2_F438I): 3300
- TF (Tolerance Factor), relative tolerance rate (non-transgenic = 1.0) ([3]; transgenic Arabidopsis Am_PPO2_R137A): 1500
- TF (Tolerance Factor), relative tolerance rate (non-transgenic = 1.0) ([3]; transgenic Arabidopsis Am_PPO2_R137A_F438I): 950
- TF (Tolerance Factor), relative tolerance rate (non-transgenic = 1.0) ([3]; transgenic Arabidopsis Am_PPO2_R137A_F438L): 2300
- TF (Tolerance Factor), relative tolerance rate (non-transgenic = 1.0) ([3]; transgenic Arabidopsis Am_PPO2_R137A_F438M): 2500
- TF (Tolerance Factor), relative tolerance rate (non-transgenic = 1.0) ([3]; transgenic Arabidopsis Am_PPO2_R137A_F438V): 2500
- TF (Tolerance Factor), relative tolerance rate (non-transgenic = 1.0) ([3]; transgenic Arabidopsis Am_PPO2_R137I): 2140
- TF (Tolerance Factor), relative tolerance rate (non-transgenic = 1.0) ([3]; transgenic Arabidopsis Am_PPO2_R137L_F438I): 2700
- TF (Tolerance Factor), relative tolerance rate (non-transgenic = 1.0) ([3]; transgenic Arabidopsis Am_PPO2_R137L_F438L): 2700
- TF (Tolerance Factor), relative tolerance rate (non-transgenic = 1.0) ([3]; transgenic Arabidopsis Am_PPO2_R137L_F438M): 3100
- TF (Tolerance Factor), relative tolerance rate (non-transgenic = 1.0) ([3]; transgenic Arabidopsis Am_PPO2_R137M_F438I): 1740
- TF (Tolerance Factor), relative tolerance rate (non-transgenic = 1.0) ([3]; transgenic Arabidopsis Am_PPO2_R137M_F438L): 1340
- TF (Tolerance Factor), relative tolerance rate (non-transgenic = 1.0) ([3]; transgenic Arabidopsis Am_PPO2_R137M_F438M): 1700
- TF (Tolerance Factor), relative tolerance rate (non-transgenic = 1.0) ([3]; transgenic Arabidopsis Am_PPO2_R137M_F438V): 1900
- IC50 [4]: 211 nM
- Herbicide injury, 0 to 9 rating scale ([5]; T0 corn events tp-SorbiPPO2::AlomyPPO2_F431V, 75 g ai/ha + 1% (v/v) MSO at V2 stage): 3
- Herbicide injury, 0 to 9 rating scale ([5]; T0 corn events tp-SorbiPPO2::AlomyPPO2_R130A_F431V, 75 g ai/ha + 1% (v/v) MSO at V2 stage): 7
- Herbicide injury, 0 to 9 rating scale ([5]; T0 corn events tp-ZeamaPPO2::AlomyPPO2_F431V, 75 g ai/ha + 1% (v/v) MSO at V2 stage): 0
- Herbicide injury, 0 to 9 rating scale ([5]; T0 corn events tp-ZeamaPPO2::AlomyPPO2_R130A, 75 g ai/ha + 1% (v/v) MSO at V2 stage): 0
- Herbicide injury, 0 to 9 rating scale ([5]; untransformed wild type corn, 50 g ai/ha + 1% (v/v) MSO at V2 stage): 7
- Herbicide injury, 0 to 9 rating scale ([5]; untransformed wild type corn, 75 g ai/ha + 1% (v/v) MSO at V2 stage): 8
- Herbicide injury, 0 to 9 rating scale ([5]; untransformed wild type corn, 100 g ai/ha + 1% (v/v) MSO at V2 stage): 8
